Paper PMC11868595, “Safety, pharmacokinetics and efficacy of HA121-28 in patients with advanced solid tumors and RET fusion-positive non-small-cell lung cancer: a multicenter, open-label, single-arm phase 1/2 trial” (Signal Transduction and Targeted Therapy, 2025)

Tested on: patients with advanced solid tumors
Experiment: Phase 1 trial: adverse events (CTCAE), DLT and MTD
Type: in vivo, human
Method: The phase 1 trial was a two-part, multicenter, open-label, nonrandomized study to evaluate the safety and preliminary efficacy of HA121-28.
Safety, tolerability, and PK of HA121-28 was assessed in dose-escalation part. The single-patient accelerated titration was carried out at 25 mg and 50 mg; then, the dose escalation proceeded according to a “3 + 3” design in dose range of 100 to 800 mg. Escalation to a higher dose level was considered by the satisfactory review of safety results from the previous lower dose during the first cycle.
The dose-expansion part aims to further access the safety and efficacy of HA121-28 at the selected doses based on data from the dose-escalation part. The RP2D was determined by investigators in view of a thorough review of safety, PK, and efficacy results.
In phase 1 trial, during the dose-escalation part, patients first administered HA121-28 in a single ascending dose under the fasted state, then followed up for seven days. Then, patients received ascending doses of HA121-28 (q.d.) on a 21-day on and 7-day off treatment scheme for a 28-day cycle. For patients deemed beneficial from the treatment by investigators, treatment could remain until disease progression, or they discontinued from the study. In the dose-expansion part of phase 1, as well as phase 2, patients received HA121-28 (q.d.) at the selected doses on a 21-day on and 7-day off treatment scheme until disease progression, or they discontinued from the study.
Treatment-emergent adverse events (TEAEs) were documented during the entire study period. The predefined adverse event of special interest (AESI) was ≥ grade 3 prolonged QT interval. Tumor imaging was performed using contrast-enhanced computed tomography or magnetic resonance imaging at screening, Day 28 of the first cycle, then approximately every eight weeks till the end of the study for phase 1; in phase 2, imaging was scheduled at screening, and every eight weeks during the first 40 weeks, followed by every 12 weeks for the rest of the study period. RECIST 1.1 was used by the independent review committee or investigators for assessment of tumor response. After the original assessment, a repeated assessment was required around four weeks later to confirm a complete or partial response.
The primary endpoints of phase 1 were to investigate the MTD, dose-limiting toxicities, and the incidence and severity of TEAEs. Each TEAE was graded according to the Common Terminology Criteria for Adverse Events (CTCAE, version 5.0) and coded by Medical Dictionary for Regulatory Activities (MedDRA, version 21.0). The secondary endpoints included calculating PK parameters, assessing the ORR and DCR at the recommended dose by investigators as per RECIST 1.1. The exploratory endpoint was PFS.
If grade 2 or higher toxicity related to the study drug occurs in Groups 1 and 2 (as determined by the investigator), dose escalation will proceed using a 3+3 design starting from that dose level. If no DLT is observed at the 800 mg/d dose level after dose escalation, a meeting of investigators will be convened to decide whether to proceed with further dose escalation based on the available PK data, safety, and tolerability information.
5. Definition of DLT and MTD
The following events related to the study drug (including those that are definitely related, highly likely to be related, and possibly related):
(1) Grade 4 hematologic toxicity or grade 3 neutropenia accompanied by a fever of 38.5℃ or higher, or grade 3 thrombocytopenia accompanied by severe bleeding.
(2) Patients who discontinued the medication for more than 7 days due to unresolved toxicity reactions or who discontinued the medication more than twice due to toxicity […]
(3) In the context of supportive treatment, diarrhea of grade 2 lasting more than 7 days, or grade 3 diarrhea lasting more than 3 days.

[1] = Phase 1 Study, patient 5 with Grade 3 QTc prolongation
[2] = Phase 1 Study, patient 9 with Grade 3 QTc prolongation

COc1cc2c(Nc3ccc(Br)cc3F)ncnc2cc1OCCCCN(C)C.Cl.Cl [HA121-28, N-(4-bromo-2-fluorophenyl)-7-(4-(dimethylamino)butoxy)-6-methoxy quinazolin-4-amine dihydrochloride]
Serious TEAE: Headache (Phase 1, 800 mg (N=3)): 0 No. (%) | Serious TEAE: Hemoptysis (Phase 1, 800 mg (N=3)): 0 No. (%) | Serious TEAE: Hydronephrosis (Phase 1, 800 mg (N=3)): 0 No. (%) | Serious TEAE: Hypertension (Phase 1, 800 mg (N=3)): 0 No. (%) | Serious TEAE: Hypoalbuminemia (Phase 1, 800 mg (N=3)): 0 No. (%) | Serious TEAE: Intestinal obstruction (Phase 1, 800 mg (N=3)): 0 No. (%) | Serious TEAE: Intra-abdominal fluid collection (Phase 1, 800 mg (N=3)): 0 No. (%) | Serious TEAE: Intracranial tumor hemorrhage (Phase 1, 800 mg (N=3)): 0 No. (%) | Serious TEAE: Liver injury (Phase 1, 800 mg (N=3)): 0 No. (%) | Serious TEAE: Lung adenocarcinoma (Phase 1, 800 mg (N=3)): 0 No. (%) | Serious TEAE: Malignant neoplasm progression (Phase 1, 800 mg (N=3)): 0 No. (%) | Serious TEAE: Multiple organ dysfunction syndrome (Phase 1, 800 mg (N=3)): 0 No. (%) | Serious TEAE: Nausea (Phase 1, 800 mg (N=3)): 0 No. (%) | Serious TEAE: Nephrolithiasis (Phase 1, 800 mg (N=3)): 0 No. (%) | Serious TEAE: Platelet counts decreased (Phase 1, 800 mg (N=3)): 0 No. (%) | Serious TEAE: Pleural effusion (Phase 1, 800 mg (N=3)): 0 No. (%) | Serious TEAE: Pneumonia (Phase 1, 800 mg (N=3)): 0 No. (%) | Serious TEAE: Pneumonitis (Phase 1, 800 mg (N=3)): 0 No. (%) | Serious TEAE: Prolonged QT interval (Phase 1, 800 mg (N=3)): 0 No. (%) | Serious TEAE: Pulmonary embolism (Phase 1, 800 mg (N=3)): 0 No. (%) | Serious TEAE: Pyrexia (Phase 1, 800 mg (N=3)): 0 No. (%) | Serious TEAE: Rash (Phase 1, 800 mg (N=3)): 0 No. (%) | Serious TEAE: Rectal hemorrhage (Phase 1, 800 mg (N=3)): 0 No. (%) | Serious TEAE: Respiratory failure (Phase 1, 800 mg (N=3)): 0 No. (%) | Serious TEAE: Seizure (Phase 1, 800 mg (N=3)): 0 No. (%) | Serious TEAE: Septic shock (Phase 1, 800 mg (N=3)): 0 No. (%) | Serious TEAE: Sudden cardiac arrest (Phase 1, 800 mg (N=3)): 0 No. (%) | Serious TEAE: Sudden death (Phase 1, 800 mg (N=3)): 0 No. (%) | Serious TEAE: Upper respiratory tract infection (Phase 1, 800 mg (N=3)): 0 No. (%) | Serious TEAE: Ventricular tachycardia (Phase 1, 800 mg (N=3)): 0 No. (%) | Serious TEAE: Vomiting (Phase 1, 800 mg (N=3)): 0 No. (%) | Serious TEAE: Weight loss (Phase 1, 800 mg (N=3)): 1 (33.3) No. (%) | Serious TRAE: ALT increased (Phase 1, 800 mg (N=3)): 0 No. (%) | Serious TRAE: AST increased (Phase 1, 800 mg (N=3)): 0 No. (%) | Serious TRAE: Abdominal Pain (Phase 1, 800 mg (N=3)): 0 No. (%) | Serious TRAE: Abdominal distension (Phase 1, 800 mg (N=3)): 0 No. (%) | Serious TRAE: Acute cholecystitis (Phase 1, 800 mg (N=3)): 0 No. (%) | Serious TRAE: Acute pancreatitis (Phase 1, 800 mg (N=3)): 0 No. (%) | Serious TRAE: Anal abscess (Phase 1, 800 mg (N=3)): 0 No. (%) | Serious TRAE: Any (Phase 1, 800 mg (N=3)): 1 (33.3) No. (%) | Serious TRAE: Aortic intramural hematoma (Phase 1, 800 mg (N=3)): 0 No. (%) | Serious TRAE: Arrhythmia (Phase 1, 800 mg (N=3)): 0 No. (%) | Serious TRAE: Blood bilirubin increased (Phase 1, 800 mg (N=3)): 0 No. (%) | Serious TRAE: Blood creatinine increased (Phase 1, 800 mg (N=3)): 0 No. (%) | Serious TRAE: COVID-19 (Phase 1, 800 mg (N=3)): 0 No. (%) | Serious TRAE: Cardiac tamponade (Phase 1, 800 mg (N=3)): 0 No. (%) | Serious TRAE: Coronary artery atherosclerosis (Phase 1, 800 mg (N=3)): 0 No. (%) | Serious TRAE: Death (Phase 1, 800 mg (N=3)): 0 No. (%) | Serious TRAE: Diarrhea (Phase 1, 800 mg (N=3)): 0 No. (%) | Serious TRAE: Drug eruption (Phase 1, 800 mg (N=3)): 0 No. (%) | Serious TRAE: Dyspnea (Phase 1, 800 mg (N=3)): 0 No. (%) | Serious TRAE: Embolism (Phase 1, 800 mg (N=3)): 0 No. (%) | Serious TRAE: Erythema multiforme (Phase 1, 800 mg (N=3)): 0 No. (%) | Serious TRAE: Headache (Phase 1, 800 mg (N=3)): 0 No. (%) | Serious TRAE: Hemoptysis (Phase 1, 800 mg (N=3)): 0 No. (%) | Serious TRAE: Hydronephrosis (Phase 1, 800 mg (N=3)): 0 No. (%) | Serious TRAE: Hypertension (Phase 1, 800 mg (N=3)): 0 No. (%) | Serious TRAE: Hypoalbuminemia (Phase 1, 800 mg (N=3)): 0 No. (%) | Serious TRAE: Intestinal obstruction (Phase 1, 800 mg (N=3)): 0 No. (%) | Serious TRAE: Intra-abdominal fluid collection (Phase 1, 800 mg (N=3)): 0 No. (%) | Serious TRAE: Intracranial tumor hemorrhage (Phase 1, 800 mg (N=3)): 0 No. (%) | Serious TRAE: Liver injury (Phase 1, 800 mg (N=3)): 0 No. (%) | Serious TRAE: Lung adenocarcinoma (Phase 1, 800 mg (N=3)): 0 No. (%) | Serious TRAE: Malignant neoplasm progression (Phase 1, 800 mg (N=3)): 0 No. (%) | Serious TRAE: Multiple organ dysfunction syndrome (Phase 1, 800 mg (N=3)): 0 No. (%) | Serious TRAE: Nausea (Phase 1, 800 mg (N=3)): 0 No. (%) | Serious TRAE: Nephrolithiasis (Phase 1, 800 mg (N=3)): 0 No. (%) | Serious TRAE: Platelet counts decreased (Phase 1, 800 mg (N=3)): 0 No. (%) | Serious TRAE: Pleural effusion (Phase 1, 800 mg (N=3)): 0 No. (%) | Serious TRAE: Pneumonia (Phase 1, 800 mg (N=3)): 0 No. (%) | Serious TRAE: Pneumonitis (Phase 1, 800 mg (N=3)): 0 No. (%) | Serious TRAE: Prolonged QT interval (Phase 1, 800 mg (N=3)): 0 No. (%) | Serious TRAE: Pulmonary embolism (Phase 1, 800 mg (N=3)): 0 No. (%) | Serious TRAE: Pyrexia (Phase 1, 800 mg (N=3)): 0 No. (%) | Serious TRAE: Rash (Phase 1, 800 mg (N=3)): 0 No. (%) | Serious TRAE: Rectal hemorrhage (Phase 1, 800 mg (N=3)): 0 No. (%) | Serious TRAE: Respiratory failure (Phase 1, 800 mg (N=3)): 0 No. (%) | Serious TRAE: Seizure (Phase 1, 800 mg (N=3)): 0 No. (%) | Serious TRAE: Septic shock (Phase 1, 800 mg (N=3)): 0 No. (%) | Serious TRAE: Sudden cardiac arrest (Phase 1, 800 mg (N=3)): 0 No. (%) | Serious TRAE: Sudden death (Phase 1, 800 mg (N=3)): 0 No. (%) | Serious TRAE: Upper respiratory tract infection (Phase 1, 800 mg (N=3)): 0 No. (%) | Serious TRAE: Ventricular tachycardia (Phase 1, 800 mg (N=3)): 0 No. (%) | Serious TRAE: Vomiting (Phase 1, 800 mg (N=3)): 0 No. (%) | Serious TRAE: Weight loss (Phase 1, 800 mg (N=3)): 1 (33.3) No. (%) | Grade of cardiac TEAE: Cardiopalmus (Phase 1 Study, patient 1 with Grade 3 QTc prolongation): 2 | Grade of cardiac TEAE: Bradycardia (Phase 1 Study, patient 2 with Grade 3 QTc prolongation): 1 | Grade of cardiac TEAE: nodal tachycardia (Phase 1 Study, patient 3 with Grade 3 QTc prolongation): 1 | Grade of cardiac TEAE: T wave anomaly (Phase 1 Study, patient 4 with Grade 3 QTc prolongation): 1 | Grade of cardiac TEAE: Complete right bundle branch block [1]: 1 | Grade of cardiac TEAE: Incomplete right bundle branch block [1]: 1 | Grade of cardiac TEAE: sinus bradycardia [1]: 1 | Grade of cardiac TEAE: T wave anomaly (Phase 1 Study, patient 6 with Grade 3 QTc prolongation): 1 | Grade of cardiac TEAE: Ventricular arrhythmia (Phase 1 Study, patient 7 with Grade 3 QTc prolongation): 4 | Grade of cardiac TEAE: ST-T wave changes (Phase 1 Study, patient 8 with Grade 3 QTc prolongation): 1 | Grade of cardiac TEAE: Abnormal Q wave of III and aVF leads [2]: 2 | Grade of cardiac TEAE: Atrial premature beats [2]: 1 | Grade of cardiac TEAE: ST-T wave changes [2]: 1 | Grade of cardiac TEAE: T wave anomaly [2]: 1 | maximum tolerated dose (MTD) (once daily, phase 1 dose escalation): 600 mg | AESI leading to dose interruption (phase 1): 10.6% | AESI leading to permanent discontinuation (phase 1): 0.6% | grade ≥ 3 TEAE diarrhea (phase 1): 8.1% | grade ≥ 3 TEAE prolonged QT interval (AESI) (phase 1): 15.0% | grade ≥ 3 TEAE rash (phase 1): 5.6% | patients with at least one TEAE (phase 1): 99.4% | patients with at least one TRAE (phase 1): 98.1% | patients with grade ≥ 3 TEAEs (phase 1): 48.8% | patients with grade ≥3 TRAEs (phase 1): 40.0% | patients with treatment-related SAEs (phase 1): 14.4% | treatment-related SAE rash (phase 1): 2.5% | TEAE diarrhea (phase 1, all grades): 78.8% | TEAE prolonged QT interval (phase 1, all grades): 50.0% | TEAE rash (phase 1, all grades): 57.5% | recommended phase 2 dose (RP2D) (q.d., 21-day on/7-day off): 450 mg
